From patent US9321767B2, “Azabenzimidazoles as respiratory syncytial virus antiviral agents” (JANSSEN SCIENCES IRELAND UC, priority 2010, dated 2016)
Where two headings read alike, the source gives them in different places.

What was measured:
rgRSV224 virus = test: microbe, parasite or virus in culture; assay type: cell-based, respiratory syncytial virus (RSV); conditions: for SI CC50/EC50: ratio of CC50 (HeLa cytotoxicity) to EC50 (RSV)
Description: (§1) Black 96-well clear-bottom microtiter plates (Corning, Amsterdam, The Netherlands) were filled in duplicate using a customized robot system with serial 4-fold dilutions of compound in a final volume of 50 μl culture medium [RPMI medium without phenol red, 10% FBS, 0.04% gentamycin (50 mg/mL) and 0.5% DMSO]. Then, 100 μl of a HeLa cell suspension (5×10^4 cells/mL) in culture medium was added to each well followed by the addition of 50 μl rgRSV224 (MOI=0.02) virus in culture medium using a multidrop dispenser (Thermo Scientific, Erembodegem, Belgium). rgRSV224 virus is an engineered virus that includes an additional GFP gene (Hallak et al, 2000) and was in-licensed from the NIH (Bethesda, Md., USA). Medium, virus- and mock-infected controls were included in each test. Cells were incubated at 37° C. in a 5% CO2 atmosphere. Three days post-virus exposure, viral replication was quantified by measuring GFP expression in the cells by a MSM laser microscope (Tibotec, Beerse, Belgium). The EC50 was defined as the 50% inhibitory concentration for GFP expression. In parallel, compounds were incubated for three days in a set of white 96-well microtitier plates (Corning) and the cytotoxicity of compounds in HeLa cells was determined by measuring the ATP content of the cells using the ATPlite kit (PerkinElmer, Zaventem, Belgium) according to the manufacturer's instructions. The CC50 was defined as the 50% concentration for cytotoxicity.

HeLa cells = test: Cytotoxicity in HeLa cells, ATP content (ATPlite kit); assay type: cell-based
Description: as §1

[1] = human respiratory syncytial virus, HeLa, 72 h, read-out: WT activity EC50
[2] = HeLa cells, three days incubation, ATP content
[3] = human respiratory syncytial virus, HeLa, 72 h, read-out: RSV-wt_EC50
[4] = rgRSV224 in HeLa cells, three days post-virus exposure, GFP expression, read-out: WT activity EC50

SMILES | SI CC50/EC50 (rgRSV224 virus) | EC50 (rgRSV224 virus; [4]) [nM] | also measured
O=c1n(Cc2nc3ncccc3n2CCCC(F)F)c2cnccc2n1C1CC1 [Compound 43, 1-cyclopropyl-3-((1-(4,4-difluorobutyl)-1H-imidazo[4,5-b]pyridin-2-yl)methyl)-1H-imidazo[4,5-c]pyridin-2(3H)-one] | 7161 |  | EC50 (rgRSV224 virus; [1]): 7.91 nM
CC(C)CCn1c(Cn2c(=O)n(C3CC3)c3ccccc32)nc2nc(Cl)ccc21 [Compound 13, 3-((5-chloro-1-isopentyl-1H-imidazo[4,5-b]pyridin-2-yl)methyl)-3-cyclopropyl-1H-benzo[d]imidazol-2(3H)-one] |  |  | TOX-HELA_EC50 (HeLa cells; [2]): >9.84 µM; EC50 (rgRSV224 virus; [3]): 2.3 nM
CC(C)CCn1c(Cn2c(=O)n(C3COC3)c3ccncc32)nc2nc(Cl)ccc21 [Compound 2, 3-((5-chloro-1-isopentyl-1H-imidazo[4,5-b]pyridin-2-yl)methyl)-1-(oxetan-3-yl)-1H-imidazo[4,5-c]pyridin-2(3H)-one] |  |  | TOX-HELA_EC50 (HeLa cells; [2]): >9.836 µM; EC50 (rgRSV224 virus; [3]): 1.58 nM
CC(C)CCn1c(Cn2c(=O)n(C3CC3)c3ccncc32)nc2nc(C(=N)N)ccc21 [Compound 105] | >330179 |  | EC50 (rgRSV224 virus; [1]): 0.316 nM
O=C1c2ccccc2C(=O)N1CCCCn1c(Cn2c(=O)n(C3CC3)c3ccncc32)nc2nc(Cl)ccc21 [Compound 66] | >16939 | 5.9 | 
O=c1n(Cc2nc3cnccc3n2CCCCO)c2cnccc2n1C1CC1 [Compound 35] |  |  | TOX-HELA_EC50 (HeLa cells): >98.3603 µM; EC50 (rgRSV224 virus; rgRSV224 in HeLa cells, three days post-virus exposure, GFP expression, read-out: RSV-wt_EC50): 79.5 nM
O=c1n(Cc2nc3nc(Cl)ccc3n2CCCC(F)(F)F)c2cnccc2n1CC(F)(F)F [Compound 71] | >108383 | 0.923 | 
O=C(NCCCCn1c(Cn2c(=O)n(C3CC3)c3ccncc32)nc2nc(Cl)ccc21)OCCF [Compound 76] | >24518 | 4.08 | 
CC(C)(C)C(=O)OCCCCn1c(Cn2c(=O)n(C3CC3)c3ccncc32)nc2nc(Cl)ccc21 [Compound 3, 4-(5-chloro-2-((1-cyclopropyl-2-oxo-1H-imidazo[4,5-c]pyridin-3(2H)-yl)methyl)-1H-imidazo[4,5-b]pyridin-1yl)butyl pivalate] |  |  | TOX-HELA_EC50 (HeLa cells; [2]): >9.836 µM; EC50 (rgRSV224 virus; [3]): 3.29 nM
O=C(NCCCCn1c(Cn2c(=O)n(C3CC3)c3ccncc32)nc2nc(Cl)ccc21)OC1CCCC1 [Compound 82] | 5649 | 17.1 | 
CC(C)CCn1c(Cn2c(=O)n(CC(F)(F)F)c3ccc(F)cc32)nc2nc(Cl)ccc21 [Compound 92] | 13572 | 6.72 | 
CC(C)CCn1c(Cn2c(=O)n(C3CC3)c3ccccc32)nc2cc(Br)cnc21 [Compound 30, 1-((6-bromo-3-isopentyl-3H-imidazo[4,5-b]pyridin-2-yl)methyl)-3-cyclopropyl-1H-benzo[d]imidazol-2(3H)-one] |  |  | TOX-HELA_EC50 (HeLa cells; [2]): >9.84 µM
O=c1n(Cc2nc3ncccc3n2CCCCF)c2cnccc2n1C1CC1 [Compound 42, 1-cyclopropyl-3-((1-(4-fluorobutyl)-1H-imidazo[4,5-b]pyridin-2-yl)methyl)-1H-imidazo[4,5-c]pyridin-2(3H)-one] |  |  | TOX-HELA_EC50 (HeLa cells; [2]): >98.3603 µM; EC50 (rgRSV224 virus; [3]): 5.2 nM
CC(C)CCn1c(Cn2c(=O)n(C3CC3)c3ccccc32)nc2cnccc21 [Compound 31] |  |  | TOX-HELA_EC50 (HeLa cells; [2]): >9.836 µM; EC50 (rgRSV224 virus; [3]): 5.4 nM
O=c1n(Cc2nc3ncccc3n2CCCC(F)(F)F)c2cc(F)ccc2n1CC(F)(F)F [Compound 89] | >2037 | 49.1 | 
O=C(Nc1ccc(F)cc1C(F)(F)F)OCCCCn1c(Cn2c(=O)n(C3CC3)c3ccncc32)nc2nc(Cl)ccc21 [Compound 83] | 4731 | 14 | 
CC(C)OC(=O)NCCCCn1c(Cn2c(=O)n(C3CC3)c3ccncc32)nc2ncccc21 [Compound 81] | >1380 | 72.4 | 
CC(C)CCn1c(Cn2c(=O)n(C3CC3)c3ccc(F)cc32)nc2cnccc21 [Compound 32] |  |  | TOX-HELA_EC50 (HeLa cells; [2]): >9.836 µM; EC50 (rgRSV224 virus; [3]): 11.3 nM
O=c1n(Cc2nc3ncccc3n2CCCc2ccccc2)c2cc(F)ccc2n1C1CC1 [Compound 93] | >3176 | 31.5 | 
CC(C)CCn1c(Cn2c(=O)n(C3CC3)c3ccncc32)nc2nc(Cl)ccc21 [Compound 1, 3-((5-chloro-1-isopentyl-1H-imidazo[4,5-b]pyridin-2-yl)methyl)-1-cyclopropyl-1H-imidazo[4,5-c]pyridin-2(3H)-one] |  |  | TOX-HELA_EC50 (HeLa cells; [2]): >9.836 µM; EC50 (rgRSV224 virus; [3]): 0.365 nM
CC(C)CCn1c(Cn2c(=O)n(C(C)C)c3ccnc(C#N)c32)nc2cccnc21 [Compound 29, 3-((3-isopentyl-3H-imidazo[4,5-b]pyridin-2-yl)methyl)-1-isopropyl-2-oxo-2,3-dihydro-1H-imidazo[4,5-c]pyridine-4-carbonitrile] |  |  | TOX-HELA_EC50 (HeLa cells; [2]): >98.3603 µM; EC50 (rgRSV224 virus; [3]): > 98400 nM
O=c1n(Cc2nc3nc(Cl)ccc3n2CCCC(F)(F)F)c2cc(F)ccc2n1CC(F)(F)F [Compound 87] | >49069 | 2.04 | 

SMILES | SI CC50/EC50 (rgRSV224 virus) | EC50 (rgRSV224 virus; [4]) [nM] | also measured
O=c1n(Cc2nc3ncccc3n2CCCC(F)(F)F)c2cnccc2n1CC(F)(F)F [Compound 72] | >2766 | 3.61 | 
COC(=O)NCCCCn1c(Cn2c(=O)n(C3CC3)c3ccncc32)nc2nc(Cl)ccc21 [Compound 68] | >12208 | 8.19 | 
O=c1n(Cc2nc3ncccc3n2CCCc2ccccn2)c2cnccc2n1C1CC1 [Compound 94] | >748 | 126 | 
CC(C)(CO)CCn1c(Cn2c(=O)n(C3CC3)c3ccncc32)nc2nc(Cl)ccc21 [Compound 88] | >4517 | 11.1 | 
O=C(Nc1ccc(Cl)cc1)OCCCCn1c(Cn2c(=O)n(C3CC3)c3ccncc32)nc2nc(Cl)ccc21 [Compound 86] | 263 | 36.8 | 
COc1ccc(NC(=O)OCCCCn2c(Cn3c(=O)n(C4CC4)c4ccncc43)nc3nc(Cl)ccc32)cc1 [Compound 79] | 1711 | 23.3 | 
CC(C)CCn1c(Cn2c(=O)n(CC(F)(F)F)c3ccncc32)nc2nc(Cl)ccc21 [Compound 90] | 36156 | 2.6 | 
CC(C)C(=O)OCCCCn1c(Cn2c(=O)n(C3CC3)c3ccncc32)nc2nc(Cl)ccc21 [Compound 65] | >18110 | 5.52 | 
O=c1n(Cc2nc3nc(F)ccc3n2CCCC(F)(F)F)c2cnccc2n1C1CC1 [Compound 69] | >1318 | 75.8 | 
NC(=O)NCCCCn1c(Cn2c(=O)n(C3CC3)c3ccncc32)nc2nc(Cl)ccc21 [Compound 74] | >1997 | 5.01 | 
O=C(NC1CCCC1)OCCCCn1c(Cn2c(=O)n(C3CC3)c3ccncc32)nc2nc(Cl)ccc21 [Compound 78] | 14406 | 5.73 | 
CC(O)CCCn1c(Cn2c(=O)n(C3CC3)c3ccncc32)nc2nc(Cl)ccc21 (stereo not shown) [Compound 67, 3-{[5-chloro-1-(4-hydroxypentyl)-1H-imidazo[4,5-b]pyridin-2-yl]methyl}-1-cyclopropyl-1,3-dihydro-2H-imidazo[4,5-c]pyridin-2-one] | >12643 |  | EC50 (rgRSV224 virus; [1]): 7.91 nM
CC(=O)OCCCCn1c(Cn2c(=O)n(C3CC3)c3ccncc32)nc2nc(Cl)ccc21 [Compound 64] | >18058 | 5.54 | 
O=C(Nc1ccc(F)c(Cl)c1)OCCCCn1c(Cn2c(=O)n(C3CC3)c3ccncc32)nc2nc(Cl)ccc21 [Compound 84] | 354 | 18.9 | 
O=c1n(Cc2nc3ncccc3n2CCCCF)c2cnccc2n1CC(F)(F)F [Compound 85] | 1436 | 8.54 | 
CC(C)(O)CCCn1c(Cn2c(=O)n(C3CC3)c3ccncc32)nc2nc(Cl)ccc21 [Compound 75, 3-((5-chloro-1-(4-hydroxy-4-methylpentyl)-1H-imidazo[4,5-b]pyridin-2-yl)methyl)-1-cyclopropyl-1H-imidazo[4,5-c]pyridin-2 (3H)-one] | >63325 |  | EC50 (rgRSV224 virus; [1]): 1.58 nM
O=c1n(Cc2nc3ncccc3n2CCCc2ccccc2)c2cnccc2n1C1CC1 [Compound 91] | >8223 | 12.2 | 
CC1=C(NCCCCn2c(Cn3c(=O)n(C4CC4)c4ccncc43)nc3nc(Cl)ccc32)c2ccccc2S1(=O)=O [Compound 80] | >9628 | 10.4 | 
COC(=O)c1nccc2c1n(Cc1nc3nc(Cl)ccc3n1CCCCO)c(=O)n2C1CC1 [Compound 62] | >339 |  | EC50 (rgRSV224 virus; [1]): 294 nM
N#CCCCn1c(Cn2c(=O)n(C3CC3)c3ccncc32)nc2ccc(Cl)nc21 [Compound 49] | >68 |  | EC50 (rgRSV224 virus; [1]): 1450 nM
O=c1n(Cc2nc3ncccc3n2CCCOC(F)(F)F)c2cnccc2n1C1CC1 [Compound 70] | >9116 | 11 | 
